target: AM2 S31 (wild-type serine at position 31 in the M2 protein), influenza virus A/Udorn/72 (Influenza A virus, UniProt P0DOF5); assay: cell-based; conditions: 100 uM; Xenopus oocytes; activity range class; read-out: S31 OOcyte Inhibition at 100 uM (%)
Sequence (P0DOF5 whole entry, looked up): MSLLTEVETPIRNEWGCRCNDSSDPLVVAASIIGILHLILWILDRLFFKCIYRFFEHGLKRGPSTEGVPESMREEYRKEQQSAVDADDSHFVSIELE

Cc1ccc(CNC23CC4CC(CC(C4)C2)C3)s1 [Example 78a, N-((5-methylthiophen-2-yl)methyl)adamantan-1-amine] and Clc1ccc(CNC23CC4CC(CC(C4)C2)C3)s1 [Example 79a, N-((5-chlorothiophen-2-yl)methyl)adamantan-1-amine] fall in the same range of inhibition at 100 µM: 31 to 95% for the first, 31 to 95% for the second.

COc1cc(Cl)sc1CNC12CC3CC(CC(C3)C1)C2 [Example 80a] and Nc1ncc(CNC23CC4CC(CC(C4)C2)C3)s1 [Example 93a, 5-((adamantan-1-ylamino)methyl)thiazol-2-amine] fall in the same range of inhibition at 100 µM: 31 to 95% for the first, 31 to 95% for the second.

Brc1ccc(CNC23CC4CC(CC(C4)C2)C3)s1 [Example 81a, N-((5-Bromothiophen-2-yl)methyl)adamantan-1-amine] and Ic1ccc(CNC23CC4CC(CC(C4)C2)C3)s1 [Example 91a, N-((5-Iodothiophen-2-yl)methyl)adamantan-1-amine] fall in the same range of inhibition at 100 µM: 31 to 95% for the first, 31 to 95% for the second.

First: CC(NC12CC3CC(CC(C3)C1)C2)c1ccc(I)s1 (centres unmarked) [Example 82a, N-(1-(5-iodothiophen-2-yl)ethyl)adamantan-1-amine]
Second: Cc1ccc(C(C)NC23CC4CC(CC(C4)C2)C3)s1 (centres unmarked) [Example 97a, N-(1-(5-methylthiophen-2-yl)ethyl)adamantan-1-amine]
The inhibition at 100 µM of the first is higher: 31 to 95% for the first, 0 to 30% for the second.

First: Brc1nc(CNC23CC4CC(CC(C4)C2)C3)cs1 [Example 83a, N-((2-bromothiazol-4-yl)methyl)adamantan-1-amine]
Second: Brc1cnc(CNC23CC4CC(CC(C4)C2)C3)s1 [Example 86a, Adamantan-1-yl-(5-bromo-thiazol-2-ylmethyl)-amine]
The inhibition at 100 µM of the first is higher: 31 to 95% for the first, 0 to 30% for the second.

CC(C)c1csc(CNC23CC4CC(CC(C4)C2)C3)n1 [Example 84a, N-((4-isopropylthiazol-2-yl)methyl)adamantan-1-amine] and CC(C)n1cc(CNC23CC4CC(CC(C4)C2)C3)cn1 [Example 85a, N-((1-isopropyl-1H-pyrazol-4-yl)methyl)adamantan-1-amine] fall in the same range of inhibition at 100 µM: 0 to 30% for the first, 0 to 30% for the second.

Brc1ccc(CNC23CC4CC(CC(C4)C2)C3)o1 [Example 87a, Adamantan-1-yl-(5-bromo-furan-2-ylmethyl)-amine] and Brc1ccc(CNC23CC4CC(CC(C4)C2)C3)[nH]1 [Example 88a, Adamantan-1-yl-(5-bromo-1H-pyrrol-2-ylmethyl)-amine] fall in the same range of inhibition at 100 µM: 31 to 95% for the first, 31 to 95% for the second.

First: Brc1cnc(CNC23CC4CC(CC(C4)C2)C3)[nH]1 [Example 89a, Adamantan-1-yl-(5-bromo-1H-imidazol-2-ylmethyl)-amine]
Second: Brc1cc(CNC23CC4CC(CC(C4)C2)C3)on1 [Example 94a, N-((3-bromoisoxazol-5-yl)methyl)adamantan-1-amine]
The inhibition at 100 µM of the first is higher: 31 to 95% for the first, 0 to 30% for the second.

CSc1ccc(CNC23CC4CC(CC(C4)C2)C3)s1 [Example 90a] and CCc1ccc(CNC23CC4CC(CC(C4)C2)C3)s1 [Example 98a, N-((5-ethylthiophen-2-yl)methyl)adamantan-1-amine] fall in the same range of inhibition at 100 µM: 31 to 95% for the first, 31 to 95% for the second.

CC(NC12CC3CC(CC(C3)C1)C2)c1ccc(C#N)s1 (centres unmarked) [Example 92a, 5-(1-(adamantan-1-ylamino)ethyl)thiophene-2-carbonitrile] and Cc1cc(CNC23CC4CC(CC(C4)C2)C3)no1 [Example 95a, N-((5-methylisoxazol-3-yl)methyl)adamantan-1-amine] fall in the same range of inhibition at 100 µM: 31 to 95% for the first, 31 to 95% for the second.

Cc1nc(CNC23CC4CC(CC(C4)C2)C3)no1 [Example 96a, N-((5-methyl-1,2,4-oxadiazol-3-yl)methyl)adamantan-1-amine] gave an inhibition at 100 µM of 31 to 95%.

same assay, conditions: Table 1; 100 uM; Xenopus oocytes, pH 5.5, -20 mV; read-out: S31 OOcyte Inhibition at 100 uM (%)

First: c1csc(-c2ccc(CNC34CC5CC(CC(C5)C3)C4)s2)c1 [Example 78, N-([2,2′-Bithiophen]-5-ylmethyl)adamantan-1-amine]
Second: c1cc2cc(CNC34CC5CC(CC(C5)C3)C4)sc2s1 [Example 79, Adamantan-1-yl-thieno[2,3-b]thiophen-2-ylmethyl-amine]
The inhibition at 100 µM of the first is lower: 0 to 30% for the first, 31 to 95% for the second.

c1cc2[nH]c(CNC34CC5CC(CC(C5)C3)C4)cc2s1 [Example 80, Adamantan-1-yl-(4H-thieno[3,2-b]pyrrol-5-ylmethyl)-amine] and c1cc2cc(CNC34CC5CC(CC(C5)C3)C4)[nH]c2s1 [Example 82, Adamantan-1-yl-(6H-thieno[2,3-b]pyrrol-5-ylmethyl)-amine] fall in the same range of inhibition at 100 µM: 31 to 95% for the first, 31 to 95% for the second.

First: c1cc2sc(CNC34CC5CC(CC(C5)C3)C4)cc2s1 [Example 81, Adamantan-1-yl-thieno[3,2-b]thiophen-2-ylmethyl-amine]
Second: c1ccc2sc(CNC34CC5CC(CC(C5)C3)C4)cc2c1 [Example 88, Adamantan-1-yl-benzo[b]thiophen-2-ylmethyl-amine]
The inhibition at 100 µM of the first is higher: 31 to 95% for the first, 0 to 30% for the second.

First: c1cc2cc(CNC34CC5CC(CC(C5)C3)C4)sc2o1 [Example 83, Adamantan-1-yl-thieno[2,3-b]furan-5-ylmethyl-amine]
Second: c1cnc2sc(CNC34CC5CC(CC(C5)C3)C4)cc2c1 [Example 90, Adamantan-1-yl-thieno[2,3-b]pyridin-2-ylmethyl-amine]
The inhibition at 100 µM of the first is higher: 31 to 95% for the first, 0 to 30% for the second.

First: c1c(CNC23CC4CC(CC(C4)C2)C3)sc2c1CSC2 [Example 84, Adamantan-1-yl-(4,6-dihydro-thieno[3,4-b]thiophen-2-ylmethyl)-amine]
Second: [O-][S+]1Cc2cc(CNC34CC5CC(CC(C5)C3)C4)sc2C1 (centres unmarked) [Example 85, Adamantan-1-yl-(5-oxo-5,6-dihydro-4H-5M-thieno[3,4-b]thiophen-2-ylmethyl)-amine]
The inhibition at 100 µM of the first is higher: 31 to 95% for the first, 0 to 30% for the second.

First: c1cn2cc(CNC34CC5CC(CC(C5)C3)C4)nc2s1 [Example 86, Adamantan-1-yl-imidazo[2,1-b]thiazol-6-ylmethyl-amine]
Second: Clc1c(CNC23CC4CC(CC(C4)C2)C3)nc2sccn12 [Example 87, Adamantan-1-yl-(5-chloro-imidazo[2,1-b]thiazol-6-ylmethyl)-amine]
The inhibition at 100 µM of the first is higher: 31 to 95% for the first, 0 to 30% for the second.

c1ccc2oc(CNC34CC5CC(CC(C5)C3)C4)cc2c1 [Example 89, Adamantan-1-yl-benzofuran-2-ylmethyl-amine] and c1ccc2[nH]c(CNC34CC5CC(CC(C5)C3)C4)cc2c1 [Example 93, Adamantan-1-yl-(1H-indol-2-ylmethyl)-amine] fall in the same range of inhibition at 100 µM: 0 to 30% for the first, 0 to 30% for the second.

c1ccc2sc(CNC34CC5CC(CC(C5)C3)C4)nc2c1 [Example 91, Adamantan-1-yl-benzothiazol-2-ylmethyl-amine] and c1ccc2[nH]c(CNC34CC5CC(CC(C5)C3)C4)nc2c1 [Example 92, Adamantan-1-yl-(1H-benzoimidazol-2-ylmethyl)-amine] fall in the same range of inhibition at 100 µM: 0 to 30% for the first, 0 to 30% for the second.

First: c1nc2ccc(CNC34CC5CC(CC(C5)C3)C4)cc2[nH]1 [Example 94, Adamantan-1-yl-(3H-benzoimidazol-5-ylmethyl)-amine]
Second: c1cc2cn[nH]c2cc1CNC12CC3CC(CC(C3)C1)C2 [Example 95, Adamantan-1-yl-(1H-indazol-6-ylmethyl)-amine]
The inhibition at 100 µM of the first is lower: 0 to 30% for the first, 31 to 95% for the second.

c1cc(CNC23CC4CC(CC(C4)C2)C3)c2cc[nH]c2c1 [Example 96, Adamantan-1-yl-(1H-indol-4-ylmethyl)-amine] and Oc1c(CNC23CC4CC(CC(C4)C2)C3)ccc2ccccc12 [Example 97, 2-(Adamantan-1-ylaminomethyl)-naphthalen-1-ol] fall in the same range of inhibition at 100 µM: 31 to 95% for the first, 31 to 95% for the second.

c1ccc2nc(CNC34CC5CC(CC(C5)C3)C4)ccc2c1 [Example 98, Adamantan-1-yl-quinolin-2-ylmethyl-amine] was tested, and the inhibition at 100 µM was 31 to 95%.

same assay, conditions: Table 3; 100 uM; Xenopus oocytes, pH 5.5, -20 mV; read-out: S31 OOcyte Inhibition at 100 uM (%)

c1cc2nc(CNC34CC5CC(CC(C5)C3)C4)sc2s1 [Example 77b, Adamantan-1-yl-thieno[3,2-d]thiazol-2-ylmethyl-amine] and c1cnc2[nH]c(CNC34CC5CC(CC(C5)C3)C4)nc2c1 [Example 82b, N-((3H-imidazo[4,5-b]pyridin-2-yl)methyl)adamantan-1-amine] fall in the same range of inhibition at 100 µM: 0 to 30% for the first, 0 to 30% for the second.

First: c1cc2[nH]c(CNC34CC5CC(CC(C5)C3)C4)cc2o1 [Example 78b, Adamantan-1-yl-(4H-furo[3,2-b]pyrrol-5-ylmethyl)-amine]
Second: COc1ccc2nc(CNC34CC5CC(CC(C5)C3)C4)[nH]c2c1 [Example 79b, Adamantan-1-yl-(6-methoxy-1H-benzoimidazol-2-ylmethyl)-amine]
The inhibition at 100 µM of the first is higher: 31 to 95% for the first, 0 to 30% for the second.

OC12CC3CC(C1)CC(NCc1noc(-c4ccccc4)n1)(C3)C2 [Example 84b, (1s,3r,5R,7S)-3-(((5-phenyl-1,2,4-oxadiazol-3-yl)methyl)amino)adamantan-1-61] and OC12CC3CC(C1)CC(NCc1noc(C4CCCCC4)n1)(C3)C2 [Example 86b, (1s,3r,5R,7S)-3-(((5-cyclohexyl-1,2,4-oxadiazol-3-yl)methyl)amino)adamantan-1-ol] fall in the same range of inhibition at 100 µM: 0 to 30% for the first, 0 to 30% for the second.

CC(C)c1cc(CNC23CC4CC(CC(O)(C4)C2)C3)no1 [Example 85b, (1s,3r,5R,7S)-3-(((5-isopropylisoxazol-3-yl)methyl)amino)adamantan-1-61] and CSc1ccc(-c2cc(CNC34CC5CCC(CC(C5)C3)C4)no2)cc1 [Example 91b, (1S,3R,8S)—N-((5-(4-(methylthio)phenyl)isoxazol-3-yl)methyl)tricyclo[4.3.1.13,8]undecan-1-amine] fall in the same range of inhibition at 100 µM: 0 to 30% for the first, 0 to 30% for the second.

First: O=C(CNC12CC3CC(CC(C3)C1)C2)c1cccs1 [Example 87b, 2-(adamantan-1-ylamino)-1-(thiophen-2-yl)ethanone]
Second: C(#Cc1cccs1)CNC12CC3CC(CC(C3)C1)C2 [Example 88b]
The inhibition at 100 µM of the first is higher: 31 to 95% for the first, 0 to 30% for the second.

For CSc1ccc(-c2cc(CNC34CC5CC(CC3C5)C4)no2)cc1 [Example 90b, (2R,3as,5S,6as)-N-((5-(4-(methylthio)phenyl)isoxazol-3-yl)methyl)octahydro-2,5-methanopentalen-3a-amine], the inhibition at 100 µM was 0 to 30%.

From patent US9884832B2 (priority 2011, dated 2018)
